How the values were obtained:
[1] = molecular target: T1, Vaccinia topoisomerase (type Ib) (Vaccinia virus, UniProt P68698); test: biochemical; assay type: biochemical
T1 construct: made in house; host or cells: Escherichia coli BL21 infected with bacteriophage λCE6

[2] = molecular target: T1, Vaccinia topoisomerase (type Ib); test: biochemical; conditions: peptide concentrations up to 42 μM
[3] = molecular target: T2, E. coli topoisomerase I (type Ia) (Escherichia coli, UniProt P06612); test: biochemical; conditions: peptide concentrations up to 42 μM
T2 sequence (P06612 1-865): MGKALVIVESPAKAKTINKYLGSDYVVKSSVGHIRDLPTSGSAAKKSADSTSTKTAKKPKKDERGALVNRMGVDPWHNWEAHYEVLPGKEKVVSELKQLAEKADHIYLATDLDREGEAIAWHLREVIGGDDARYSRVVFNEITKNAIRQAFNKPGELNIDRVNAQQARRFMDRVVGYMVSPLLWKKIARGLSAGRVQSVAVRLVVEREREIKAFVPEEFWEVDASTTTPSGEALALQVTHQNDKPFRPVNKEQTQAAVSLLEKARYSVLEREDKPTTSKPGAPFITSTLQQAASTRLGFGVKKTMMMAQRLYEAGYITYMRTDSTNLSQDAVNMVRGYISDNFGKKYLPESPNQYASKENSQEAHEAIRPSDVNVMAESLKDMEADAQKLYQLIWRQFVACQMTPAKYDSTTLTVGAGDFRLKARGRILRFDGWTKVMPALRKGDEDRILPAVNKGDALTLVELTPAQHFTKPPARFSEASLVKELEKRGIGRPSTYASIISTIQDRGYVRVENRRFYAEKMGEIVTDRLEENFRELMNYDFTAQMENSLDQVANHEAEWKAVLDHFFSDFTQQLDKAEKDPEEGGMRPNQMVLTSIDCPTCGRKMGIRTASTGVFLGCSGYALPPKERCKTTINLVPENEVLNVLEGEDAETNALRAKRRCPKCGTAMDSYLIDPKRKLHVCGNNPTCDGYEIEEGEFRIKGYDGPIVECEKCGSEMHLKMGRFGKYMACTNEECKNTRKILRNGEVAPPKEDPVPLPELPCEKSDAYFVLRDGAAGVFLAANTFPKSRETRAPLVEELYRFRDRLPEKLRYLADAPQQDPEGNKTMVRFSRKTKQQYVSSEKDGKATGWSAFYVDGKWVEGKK
Text: E. coli topoisomerase I (TopA) exemplifies the type IA topoisomerase family. Type IA enzymes are mechanistically and structurally unrelated to the topoisomerase IB/tyrosine recombinase superfamily of DNA strand transferases.

[4] = molecular target: T3, Lambda integrase (Int) (Bacteriophage lambda) (UniProt P03700); test: cleavage_in_vitro
T3 sequence: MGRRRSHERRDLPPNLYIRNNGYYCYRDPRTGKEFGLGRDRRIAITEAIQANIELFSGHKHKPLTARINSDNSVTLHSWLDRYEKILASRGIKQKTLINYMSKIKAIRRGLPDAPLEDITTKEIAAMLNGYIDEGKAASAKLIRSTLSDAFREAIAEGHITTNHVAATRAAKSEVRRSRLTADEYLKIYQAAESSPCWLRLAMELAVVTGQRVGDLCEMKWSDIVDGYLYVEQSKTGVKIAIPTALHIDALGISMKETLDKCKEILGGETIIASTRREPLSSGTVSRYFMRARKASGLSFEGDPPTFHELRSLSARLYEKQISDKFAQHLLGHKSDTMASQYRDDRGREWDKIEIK

Substance: WCHYNY
- effect on transesterification (DNA cleavage) [1]: did not inhibit transesterification
- effect on DNA relaxation [2]: no effect
- effect on DNA relaxation [3]: no effect

Substance: attL + attR excision substrates
- activity ([4]; excision with IHF and Xis, no peptide): > 70%

Substance: excision Holliday junction (attL x attR)
- activity ([4]; Int alone HJ resolution, binds weakly alone, 42.4% with IHF, 14.4% with Xis, 58.2% with IHF+Xis, 95.3% with IHF+Xis no spermidine): 7.2%

— patent US20040002441A1, “Recombination modulators and methods for producing and using the same” (priority 2000, published 2004)
